Measured values: publication PMC7721091 (Cancer Biology & Medicine, 2020)
Several values for one entry are separate records, joined by “and”; a condition that tells them apart may be missing. Identical values can stand only once.

Tests used:
[1] = Plasma PK of cyclodextrin-HM after i.v. injection; type: in vivo, C57BL/6 mice; conditions: C57BL/6, mouse, iv, 20 mg/kg
Description: Plasma samples were obtained from mice at 0, 0.083, 0.25, 0.5, 1, 2, 4, 8, and 24 h time points. Non-compartmental analysis of plasma data after intravenous bolus input was used to determine standard PK parameters of analytes. Administration i.v. has the advantage of allowing for rapid exposure as well as precise control of dose and administration of the tested therapeutic compounds[12], and oral administration may be less efficient with low drug bioavailability, owing to drug adsorption and metabolization in the liver. […] Mice were then anesthetized through intraperitoneal injection of pentobarbital (50 mg/kg) before collection of blood for further analysis.

ABCB1 = conditions: human 293FRT embryonic kidney cells stably expressing ABCB1; cited from earlier work
P-gp = P-gp (Homo sapiens, UniProt P08183); conditions: MDCK monolayers transfected with P-gp; among cyclosporin A, elacridar, tariquidar; cited from earlier work
[2] = Plasma PK of cyclodextrin-HM co-treated with PTX; type: in vivo, C57BL/6 mice; conditions: at 72 h, co-treatment with PTX
Description: Plasma samples were collected at 72 h for the analysis of PK parameters in PTX-HM treatment (Figure 4D).

[3] = test system: U-87 MG-Luc2 glioma cells; experiment: Orthotopic brain tumor model; type: in vivo, BALB/c nude mice; conditions: for MST (median survival time): vehicle MST 33; for ILS (increase in lifespan): no HM
Description: An orthotopic brain tumor model was established by Wuxi Apptec. Briefly, female BALB/c nude mice 6–8 weeks of age and weighing 18–22 g (Shanghai Sippr-BK Laboratory Animal Co. Ltd., Shanghai, China) were anesthetized through intraperitoneal injection of pentobarbital sodium (80 mg/kg) and subcutaneously administered 0.1 mg/kg buprenorphine before and after surgery for analgesia. The anesthetized mice were intracranially (i.c.) inoculated with U-87 MG-Luc2 cells (2×10^5 cells in 2 μL PBS) in the right frontal lobe. […] The physiological condition of the animals was assessed daily. The animals were pre-anesthetized with a mixture gas of oxygen and isoflurane (1%–3%) to achieve a complete anesthetic state before bioluminescence measurements. Tumor growth was monitored with an in vivo imaging system (Lumina III; PerkinElmer, Inc.), and the survival of all animals was recorded for the calculation of the median survival time (MST) for each group. The increase in lifespan (ILS) was determined as the ratio of the MST of the treatment group to that of the control group, expressed as the percentage increase over the lifespan of the control animals.
Statistical analyses were performed in Microsoft Excel (Microsoft Corporation) and Prism (GraphPad Software). The statistical significance for all experiments was determined with one way ANOVA and Dunnett test. Kaplan-Meier statistical analysis was used for the calculation of the survival rates of different groups of mice, each containing 8 animals, and P-values were calculated with the log rank test. […]

in vivo = conditions: C57BL/6, mouse, brain and plasma, iv
Description: The brain samples were homogenized through ultrasonication in saline before the extraction procedure. The collected supernatant was dried under nitrogen gas, reconstituted in acetonitrile, and divided into aliquots that were loaded onto the LC-MS/MS system. […] The mobile phase for measurement of all compounds was phase A (0.1% formic acid in water) and phase B (0.1% formic acid in acetonitrile): 0–3 min/2%–10% B; 3–8 min/10%–60% B; 8–13 min/60%–90% B; 13–14 min/90%–2% B; and 14–15 min/2% B. The column and auto-sampler temperatures were maintained at 40 °C and 4 °C, respectively. Data were analyzed in Agilent MassHunter workstation software vB.01.03 (Agilent Technologies, Inc.). […] The amounts of the 2 drugs in the plasma and brain samples collected from mice were quantified by using standard and linear least-squares regression curves through calculation of the area under curve (AUC).
PK analysis was performed with PKSolver (Microsoft Corporation)[15]. […] PK analysis was performed through non-compartmental analysis according to Bailer’s method[16].
The percentage penetration of a drug into the brain was expressed as brain AUC0-72hr /plasma AUC0-72hr.

plasma albumin = plasma albumin (Homo sapiens, UniProt P02768); experiment: Bio-layer interferometry analysis; type: binding; conditions: BLI, biotinylated albumin
Description: Albumin was biotinylated with EZ-Link NHS-LC-LC-Biotin (Thermo Fisher Scientific, Waltham, MA, USA) for 30 min at room temperature and then added to a 96-well plate (Greiner Bio-One, PN:655209). Biotinylation was performed by loading the reaction complex onto a super streptavidin capacity probe (ForteìBIO, Menlo Park, CA, United States), and results were analyzed with a FortéBIO Octet Red instrument upon binding dPTX or HM. ForteìBIO data analysis software was used to calculate the association and dissociation kinetic constants.

plasma albumin, sequence (P02768 25-609): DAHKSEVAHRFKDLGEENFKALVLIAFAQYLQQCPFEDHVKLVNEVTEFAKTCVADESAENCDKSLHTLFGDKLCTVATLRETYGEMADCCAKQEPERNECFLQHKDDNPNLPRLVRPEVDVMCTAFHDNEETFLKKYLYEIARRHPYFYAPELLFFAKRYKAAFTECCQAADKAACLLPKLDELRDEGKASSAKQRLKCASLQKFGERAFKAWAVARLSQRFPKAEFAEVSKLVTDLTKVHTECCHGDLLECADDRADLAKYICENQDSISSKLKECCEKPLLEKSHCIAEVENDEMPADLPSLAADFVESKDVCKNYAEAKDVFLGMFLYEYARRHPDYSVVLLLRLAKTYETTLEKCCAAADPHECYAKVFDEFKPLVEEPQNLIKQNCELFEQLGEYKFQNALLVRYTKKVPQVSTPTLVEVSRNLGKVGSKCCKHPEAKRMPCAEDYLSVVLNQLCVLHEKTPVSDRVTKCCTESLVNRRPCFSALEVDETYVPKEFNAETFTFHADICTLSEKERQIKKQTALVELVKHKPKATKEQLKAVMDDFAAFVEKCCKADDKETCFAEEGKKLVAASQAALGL
P-gp, sequence (P08183 whole entry): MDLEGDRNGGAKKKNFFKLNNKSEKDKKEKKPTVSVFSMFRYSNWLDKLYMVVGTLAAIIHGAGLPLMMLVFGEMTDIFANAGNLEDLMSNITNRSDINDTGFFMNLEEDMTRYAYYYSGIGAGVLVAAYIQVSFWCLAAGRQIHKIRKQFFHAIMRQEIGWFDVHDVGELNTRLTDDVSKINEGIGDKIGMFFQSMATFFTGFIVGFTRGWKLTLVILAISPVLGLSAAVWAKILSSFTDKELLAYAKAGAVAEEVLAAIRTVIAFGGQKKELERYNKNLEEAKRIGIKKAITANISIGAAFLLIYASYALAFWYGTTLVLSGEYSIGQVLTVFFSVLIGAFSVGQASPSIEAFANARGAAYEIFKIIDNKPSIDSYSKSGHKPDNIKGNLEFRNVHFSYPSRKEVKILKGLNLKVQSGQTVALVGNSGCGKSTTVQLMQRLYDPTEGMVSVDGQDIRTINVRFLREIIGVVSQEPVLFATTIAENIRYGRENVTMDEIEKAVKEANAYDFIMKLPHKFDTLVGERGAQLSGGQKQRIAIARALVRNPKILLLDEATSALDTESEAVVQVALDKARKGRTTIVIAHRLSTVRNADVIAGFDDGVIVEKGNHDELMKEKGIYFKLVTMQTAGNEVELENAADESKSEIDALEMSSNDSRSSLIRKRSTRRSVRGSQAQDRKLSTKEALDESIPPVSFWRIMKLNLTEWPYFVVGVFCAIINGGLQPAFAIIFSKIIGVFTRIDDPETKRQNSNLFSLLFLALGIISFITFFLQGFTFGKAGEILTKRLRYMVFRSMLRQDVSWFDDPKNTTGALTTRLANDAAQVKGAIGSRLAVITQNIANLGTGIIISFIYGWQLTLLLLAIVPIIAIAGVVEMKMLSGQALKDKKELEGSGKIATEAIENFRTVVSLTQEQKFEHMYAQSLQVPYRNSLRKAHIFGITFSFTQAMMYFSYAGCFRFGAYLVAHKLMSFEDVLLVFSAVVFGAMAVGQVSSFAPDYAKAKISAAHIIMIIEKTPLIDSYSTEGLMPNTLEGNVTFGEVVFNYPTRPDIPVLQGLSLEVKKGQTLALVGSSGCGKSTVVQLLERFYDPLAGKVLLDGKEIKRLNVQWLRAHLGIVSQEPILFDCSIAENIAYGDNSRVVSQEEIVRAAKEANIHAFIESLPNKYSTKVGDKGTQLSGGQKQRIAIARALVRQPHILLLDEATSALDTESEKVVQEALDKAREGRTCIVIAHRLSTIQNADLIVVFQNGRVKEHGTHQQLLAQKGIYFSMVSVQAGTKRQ

SMILES | AUC(0-t) ([1]; read-out: area under the curve (AUC0-t)) [ng·h/mL] | half-life ([1]; read-out: half-life (t1/2)) [min] | potency in inhibiting P-gp-mediated transport of Rho123, relative to XR9576 (Tariquidar) (ABCB1) | potency in inhibiting the transepithelial transport of PTX (P-gp) | AUC 0-t/0-inf_obs ratio [2] [%] | MST (median survival time) ([3]; PTX 5 mg/kg i.v. q4d×5, no HM) | ILS (increase in lifespan) ([3]; PTX 5 mg/kg) [%] | MST (median survival time) ([3]; PTX 10 mg/kg i.v. q4d×5, no HM) | ILS (increase in lifespan) ([3]; PTX 10 mg/kg) [%] | Kp at 0.5 h (in vivo) | Kp (in vivo; 10 mg/kg) | Kd (plasma albumin)
COc1cc2c(cc1OC)CN(CCc1ccc(-n3nnc(-c4cc(OC)c(OC)cc4NC(=O)c4cc(=O)c5ccccc5o4)n3)cc1)CC2 [HM, HM30181A] | 4750 to 9760 | 1120 to 2440 | ~ 24 times | highest potency | 96 |  |  |  |  |  |  | 
CC(=O)O[C@H]1C(=O)[C@@]2(C)[C@H]([C@H](OC(=O)c3ccccc3)[C@]3(O)C[C@H](OC(=O)[C@H](O)[C@@H](NC(=O)c4ccccc4)c4ccccc4)C(C)=C1C3(C)C)[C@]1(OC(C)=O)CO[C@@H]1C[C@@H]2O [PTX, Paclitaxel] |  |  |  |  |  | 33 day and 33 (30~38) day | 0 | 35 day and 35 (30~38) day | 6 | 0.46 | 0.29 | 43.3 µM and 43 µM
